Data set [1] addresses T1, Voltage-gated inwardly rectifying potassium channel KCNH2 (Homo sapiens, UniProt Q12809). As to the kind of experiment: Binding affinity to Kv11.1 channel (unknown origin).
In data set [2] the target is Kv11.1 (KCNH2, hERG) potassium channel (Homo sapiens, UniProt Q12809). The data set can be described thus: Allosteric modulation of [3H]-dofetilide binding at Kv11.1 channel (unknown origin) expressed in HEK293 cells at 10 uM after 6 mins by scintillation spectrometer analysis relative to control. Type of data set: cell-based. The conditions noted are these: HEK293 cells expressing Kv11.1 channel, probe [3H]-dofetilide, read-out: Activity.

The target of data set [3] is T1, Voltage-gated inwardly rectifying potassium channel KCNH2. The data set can be described thus: Allosteric modulation of Kv11.1 channel (unknown origin) expressed in HEK293 cells assessed as shift of inhibition constant for dofetilide-induced displacement of [3H]-dofetilide binding at 10 uM after 1 hr relative to control. Type of data set: cell-based. The conditions noted are these: hek293, 1 h. (In general: In a radioligand displacement assay an active substance lowers the binding of a labelled ligand.)

The target is the same in data set [4]. As to the kind of experiment: Induction of dissociation of [3H]-dofetilide from Kv11.1 channel (unknown origin) assessed as dissociation rate expressed in HEK293 cells at 50 uM after 1 hr relative to control. Type of data set: cell-based. The conditions noted are these: hek293, 1 h.
Data set [5] has the same target. The data set can be described thus: Allosteric modulation of Kv11.1 channel (unknown origin) expressed in HEK293 cells assessed as shift of inhibition constant for astemizole-induced displacement of [3H]-dofetilide binding at 10 uM after 1 hr relative to control. Type of data set: cell-based. The following applies: hek293, 1 h.
Data set [6] has the same target. As to the kind of experiment: Induction of dissociation of [3H]-dofetilide from Kv11.1 channel (unknown origin) assessed as dissociation rate expressed in HEK293 cells after 1 hr. Type of data set: cell-based.

T1 sequence (Q12809 whole entry): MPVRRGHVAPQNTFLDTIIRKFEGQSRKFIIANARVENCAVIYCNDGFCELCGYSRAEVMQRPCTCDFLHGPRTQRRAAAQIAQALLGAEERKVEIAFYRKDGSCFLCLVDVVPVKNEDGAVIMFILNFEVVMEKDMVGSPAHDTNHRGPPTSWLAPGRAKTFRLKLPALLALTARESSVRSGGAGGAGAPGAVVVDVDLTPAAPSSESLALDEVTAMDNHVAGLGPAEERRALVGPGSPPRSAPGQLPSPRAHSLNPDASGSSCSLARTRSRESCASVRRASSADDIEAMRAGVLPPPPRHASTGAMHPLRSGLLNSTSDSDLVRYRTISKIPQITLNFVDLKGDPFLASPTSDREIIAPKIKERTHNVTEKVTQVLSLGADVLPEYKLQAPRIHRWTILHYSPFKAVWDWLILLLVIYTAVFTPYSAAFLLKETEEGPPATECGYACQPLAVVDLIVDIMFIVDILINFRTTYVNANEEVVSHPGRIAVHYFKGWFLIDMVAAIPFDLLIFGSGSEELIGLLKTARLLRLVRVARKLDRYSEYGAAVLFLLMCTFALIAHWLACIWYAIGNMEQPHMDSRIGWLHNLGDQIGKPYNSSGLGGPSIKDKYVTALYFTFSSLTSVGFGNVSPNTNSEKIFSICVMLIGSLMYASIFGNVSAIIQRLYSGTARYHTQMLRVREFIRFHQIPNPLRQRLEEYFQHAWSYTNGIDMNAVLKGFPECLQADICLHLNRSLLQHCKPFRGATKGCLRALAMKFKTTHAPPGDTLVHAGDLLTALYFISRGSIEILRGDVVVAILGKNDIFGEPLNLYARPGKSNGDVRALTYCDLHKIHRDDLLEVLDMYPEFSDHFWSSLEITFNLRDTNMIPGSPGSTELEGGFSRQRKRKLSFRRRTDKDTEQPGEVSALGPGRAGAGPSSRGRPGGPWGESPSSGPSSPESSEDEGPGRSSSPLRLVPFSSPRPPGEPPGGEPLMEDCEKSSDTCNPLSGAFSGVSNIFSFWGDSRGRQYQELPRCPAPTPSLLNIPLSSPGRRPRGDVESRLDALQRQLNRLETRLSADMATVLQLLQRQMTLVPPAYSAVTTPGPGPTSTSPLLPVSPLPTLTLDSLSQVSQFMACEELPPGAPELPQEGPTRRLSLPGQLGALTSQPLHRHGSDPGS
Chain of Kv11.1 (KCNH2, hERG) potassium channel (Q12809 whole entry): as above

In data set [1], `O=C(COc1ccc2ccccc2c1Br)Nc1cccnc1` showed an inhibition constant (Ki) of 0.0048 µM. Further, in data set [2], the activity at 0.1 h, 10 µM was 66%.

For `O=C(COc1ccc(C(=O)c2ccccc2)cc1)Nc1cccnc1`, the activity at 0.1 h, 10 µM in data set [2] worked out at 78%.

For the compound `O=C(COc1ccc(C(=O)c2cccc(F)c2Br)cc1)Nc1cccnc1`, in data set [2], the activity at 0.1 h, 10 µM is 85%.

As to `O=C(COc1ccc(C(=O)c2ccc(Cl)cc2)cc1)Nc1cccnc1`, the activity at 0.1 h, 10 µM in data set [2] was determined as 104%.

Consider `Cc1ccc(NC(=O)COc2ccc(C(=O)c3ccccc3Br)cc2)cn1`, for which the activity at 0.1 h, 10 µM in data set [2] was determined as 105%.

Consider `COc1ccncc1NC(=O)COc1ccc(C(=O)c2ccccc2Br)cc1`, for which the activity at 0.1 h, 10 µM in data set [2] was found to be 105%.

For the compound `O=C(COc1ccc(C(=O)c2ccccc2Br)cc1)Nc1cncnc1`, in data set [2], the activity at 0.1 h, 10 µM turned out to be 87%.

Regarding `Cc1ccc(C(=O)c2ccc(OCC(=O)Nc3cccnc3)cc2)cc1`, the activity at 0.1 h, 10 µM in data set [2] stood at 97%.

For the compound `O=C(COc1ccc(C(=O)c2cccc(Br)c2)cc1)Nc1cccnc1`, in data set [2], the activity at 0.1 h, 10 µM stood at 57%. For the same compound, the “fold change (FC)” value in data set [3], in data set [4] and in data set [5] was 1.4 throughout.

Regarding `O=C(COc1ccc(C(=O)c2ccccc2)c(Br)c1)Nc1cccnc1`, the activity at 0.1 h, 10 µM in data set [2] was determined as 96%.

Consider `O=C(COc1ccc(C(=O)c2cccc(Cl)c2)cc1)Nc1cccnc1`, for which the activity at 0.1 h, 10 µM in data set [2] was found to be 43%. For the same compound, the “fold change (FC)” value was found to be 3.3 in data set [3], 1.7 in data set [4] and 2.8 in data set [5].

For the compound `O=C(COc1ccc(C(=O)c2ccccc2Br)cc1)Nc1ccc(Cl)nn1`, in data set [2], the activity at 0.1 h, 10 µM came to 92%.

`Cc1ccncc1NC(=O)COc1ccc(C(=O)c2ccccc2Br)cc1`: in data set [2], the activity at 0.1 h, 10 µM was found to be 108%.

As to `O=C(COc1ccc(C(=O)c2cccc(F)c2)cc1)Nc1cccnc1`, the activity at 0.1 h, 10 µM in data set [2] came to 47%. The “fold change (FC)” value in data set [3] came out at 1.9; in data set [4], 1.6; in data set [5] it was 1.9.

Consider `O=C(COc1ccc(C(=O)c2cccc(I)c2)cc1)Nc1cccnc1`, for which, in data set [2], the activity at 0.1 h, 10 µM was determined as 62%.

Turning to `O=C(COc1ccc(C(=O)c2ccccc2F)cc1)Nc1cccnc1`, the activity at 0.1 h, 10 µM in data set [2] amounted to 85%.

For the compound `O=C(COc1ccc(C(=O)c2ccccc2Br)cc1)Nc1cccnc1`, in data set [2], the activity at 0.1 h, 10 µM turned out to be 44%. Also, the entries for the “fold change (FC)” value in data set [3], in data set [4] and in data set [5] were 2.5, 3 and 4.1, respectively. The EC50 in data set [6] amounted to 12 µM.

Take `COc1ccc(NC(=O)COc2ccc(C(=O)c3ccccc3Br)cc2)cn1`: the activity at 0.1 h, 10 µM in data set [2] stood at 124%.

Regarding `O=C(COc1ccc(C(=O)c2ccc(F)cc2)cc1)Nc1cccnc1`, in data set [2], the activity at 0.1 h, 10 µM turned out to be 65%.

On to `COc1cncc(NC(=O)COc2ccc(C(=O)c3ccccc3Br)cc2)c1`, for which, in data set [2], the activity at 0.1 h, 10 µM is 107%.

Take `O=C(COc1ccc(C(=O)c2ccccc2Br)cc1)Nc1ccc(Cl)nc1`: the activity at 0.1 h, 10 µM in data set [2] was 95%.

As for `O=C(COc1ccc(C(=O)c2ccccc2Cl)cc1)Nc1cccnc1`, in data set [2], the activity at 0.1 h, 10 µM stood at 71%.

Turning to `Cc1cncc(NC(=O)COc2ccc(C(=O)c3ccccc3Br)cc2)c1`, the activity at 0.1 h, 10 µM in data set [2] stood at 121%.

For `O=C(COc1ccc2c(c1)-c1ccccc1C2=O)Nc1cccnc1`, the activity at 0.1 h, 10 µM in data set [2] is 79%.

`O=C(COc1ccc(C(=O)c2ccccc2Br)cc1)Nc1cnc2ccccc2c1`: the activity at 0.1 h, 10 µM in data set [2] was 87%.

Consider `O=C(COc1ccc(C(=O)c2cc(F)ccc2Br)cc1)Nc1cccnc1`, for which the activity at 0.1 h, 10 µM in data set [2] is 38%. The figures for the “fold change (FC)” value in data set [3], in data set [4] and in data set [5] were 4.6, 4.1 and 6.3, respectively. Further, the concentration for a half-maximal effect (EC50) in data set [6] was determined as 4.6 µM.

For the compound `O=C(COc1ccc(C(=O)c2ccccc2I)cc1)Nc1cccnc1`, in data set [2], the activity at 0.1 h, 10 µM came to 72%.

For the compound `O=C(COc1ccc(C(=O)c2ccccc2Br)cc1)Nc1cnccn1`, in data set [2], the activity at 0.1 h, 10 µM was determined as 92%.

Consider `O=C(COc1ccc(C(=O)c2ccccc2)cc1Br)Nc1cccnc1`, for which the activity at 0.1 h, 10 µM in data set [2] was found to be 96%.

The term Ki denotes a measure of affinity in units of concentration, obtained from inhibition or displacement. Broadly, the EC50 is the concentration that produces a half-maximal response.
